The record followed here is article PMC5618418, “Pharmacokinetics of Jaspine B and Enhancement of Intestinal Absorption of Jaspine B in the Presence of Bile Acid in Rats” (Marine Drugs, 2017).

One data set can be described thus: in vitro. The data set is classed as in vitro ADME, rat. The procedure:
For the measurement of the effect of TC on the tight junction of biological membranes, the permeability of 50 μM Lucifer yellow, a marker of paracellular permeation, was measured in the presence of TC (0, 0.1, 1, 10, 100 mM). Prior to the experiment, ileal segments from SD rats (about 20 cm) were placed in the chambers and were submerged in fresh, prewarmed (37 °C) HBSS for 15 min for acclimatization. The chambers were continuously bubbled with carbogen gas (5% CO2/ 95% O2) during the experiment. The experiments began by replacing the HBSS with HBSS containing 50 μM Lucifer yellow and various concentrations of TC on the apical side (A) and adding fresh HBSS to the basal side (B). Aliquots (400 μL) of media were withdrawn from the receiver compartment (B) after 0, 20, 40, 60, and 80 min, and the volume of liquid in the receiver compartment was replenished with fresh, prewarmed HBSS after each sampling. Aliquots (200 μL) of all samples were used for the determination of Lucifer yellow concentration. The fluorescence of Lucifer yellow in the samples was measured using a fluorescence spectrophotometer (Infinite 200 PRO, Tecan, Switzerland) with excitation at 425 nm and emission at 535 nm.
A to B and B to A permeability of Jaspine B was measured in the presence of TC and rat bile. One mL of HBSS containing 50 μM Jaspine B and 10 mM TC or 20% bile was added to the donor side and 1 mL of preheated fresh HBSS was added to the receiver side. Aliquots (400 μL) of media were withdrawn at 0, 20, 40, 60, and 80 min from the receiver compartment as described above. Aliquots (50 μL) of all samples were stored at −80 °C until analysis.
Aliquots (50 μL) of all samples were added to 250 μL of acetonitrile containing 0.5 ng/mL of berberine. After vortexing for 10 min and centrifugation at 13,200 rpm for 5 min, 2 μL of the supernatant was injected directly into the LC-MS/MS system.
The apparent permeability (Papp) of the drug was calculated by dividing the initial drug transport rate (dQ/dt, pmol/min) by the initial drug concentration in the donor compartment of the insert (Co) multiplied by the surface area of the insert (A, cm^2): (3) Papp=dQ/dt×1/ACo

Data set [1] is described as follows: Metabolic stability in rat liver microsomes. As to conditions: 1 μM, rat liver microsomes, NADPH-generating system, 60 min, 37 °C. The data set is classed as in vitro ADME. The procedure:
Jaspine B (1 μM) was reconstituted in 100 mM potassium phosphate buffer (pH 7.4) containing 0.25 mg of RLMs and was pre-incubated for 5 min at 37 °C. The reaction was initiated by adding an NADPH-generating system (1.3 mM β-NADP, 3.3 mM glucose-6-phosphate, 3.3 mM MgCl2, and 1.0 unit/mL glucose-6-phosphate dehydrogenase) and then incubated (final volume 100 μL) for 0, 15, 30, and 60 min at 37 °C in a shaking water bath. The reaction was stopped by placing the incubation tubes on ice and adding 200 μL of ice-cold acetonitrile containing 0.5 ng/mL of berberine. After vortexing for 10 min and centrifugation at 13,200 rpm for 5 min, 2 μL of the supernatant was injected directly into the LC-MS/MS system.

As for Lucifer yellow [reference compound], in the data set “in vitro”, the “increase of permeability caused by tight junction opening” value is on record as ~ 2.8 fold and the permeability change entry was “sharp increase”. In data set [1], `CN(C)C(=N)N=C(N)N` [metformin, reference compound] came in with a percentage remaining of 63.4%.
